Reference: US9695178B2, “6-(2-pyridyl)-7,8-dihydro-5H-pyrido[4,3-D]pyrimidine analogs as hedgehog pathway signaling inhibitors and therapeutic applications thereof” (Suzhou Yunxuan Yiyao Keji Youxian Gongsi, priority 2013, dated 2017)

Molecular target: Smo (Homo sapiens, UniProt Q99835)
Experiment: Bodipy-Cyclopamine Binding Assay (confirmation assay), Hek293-SMO cells

Smo, sequence (Q99835 28-787): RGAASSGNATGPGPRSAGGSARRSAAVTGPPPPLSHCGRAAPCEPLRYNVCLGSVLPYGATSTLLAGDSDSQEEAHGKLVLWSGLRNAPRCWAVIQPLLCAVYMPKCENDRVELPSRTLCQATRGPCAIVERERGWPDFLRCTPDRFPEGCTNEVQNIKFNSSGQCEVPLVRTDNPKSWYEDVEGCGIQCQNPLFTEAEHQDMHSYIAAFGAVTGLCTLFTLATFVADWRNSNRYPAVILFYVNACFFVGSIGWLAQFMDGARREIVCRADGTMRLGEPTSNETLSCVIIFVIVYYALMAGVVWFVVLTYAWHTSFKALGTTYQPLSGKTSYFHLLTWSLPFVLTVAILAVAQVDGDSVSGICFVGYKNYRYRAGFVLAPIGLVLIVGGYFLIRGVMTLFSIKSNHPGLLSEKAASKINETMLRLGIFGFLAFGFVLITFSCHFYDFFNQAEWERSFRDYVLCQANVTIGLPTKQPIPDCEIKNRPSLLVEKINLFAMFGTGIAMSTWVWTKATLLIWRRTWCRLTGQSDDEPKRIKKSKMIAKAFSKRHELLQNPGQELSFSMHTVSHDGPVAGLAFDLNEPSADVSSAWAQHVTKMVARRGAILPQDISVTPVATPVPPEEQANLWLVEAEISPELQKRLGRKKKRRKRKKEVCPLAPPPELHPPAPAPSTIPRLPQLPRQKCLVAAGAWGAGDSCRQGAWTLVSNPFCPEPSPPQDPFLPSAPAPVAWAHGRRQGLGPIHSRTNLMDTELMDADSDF

Structure (SMILES)	IC50 [nM]
COC1CCN(c2ncc3c(n2)CCN(c2cc(-c4ncc(C)cc4C)c(Cl)cn2)C3)CC1 [Compound A-68, 6-(5′-chloro-3,5-dimethyl-2,4′-bipyridin-2′-yl)-2-(4-methoxy-piperidin-1-yl)-5,6,7,8-tetrahydro-pyrido-[4,3-d]pyrim-idine]	163
Cc1cnc(-c2cc(N3CCc4nc(NCC5CC5)ncc4C3)ncc2Cl)c(C)c1 [Compound A-65, 6-(5′-chloro-3,5-dimethyl-2,4′-bipyridin-2′-yl)-N-(cyclopropyl-meth-yl)-5,6,7,8-tetrahydro-pyrido-[4,3-d]pyrimidin-2-amine]	85.3
Cc1cnc(-c2cc(N3CCc4nc(N)sc4C3)ncc2Cl)c(C)c1 [Compound A-22, 5-(5′-chloro-3,5-dimethyl-2,4′-bipyridin-2′-yl)-4,5,6,7-tetrahydro-thiazolo-[5,4-c]pyridin-2-amine]	768
Cc1cnc(-c2cc(N3CCc4nc(N5CC(C)NC(C)C5)sc4C3)ncc2Cl)c(C)c1 (stereo not drawn) [Compound A-30, 5-(5′-chloro-3,5-dimethyl-2,4′-bipyridin-2′-yl)-2-(3,5-dimethyl-piperazin-1-yl)-4,5,6,7-tetrahydro-thiazolo-[5,4-c]pyridine]	69.7
Cc1cnc(-c2cc(N3CCc4nc(N(C)CCO)ncc4C3)ncc2Cl)c(C)c1 [Compound A-54, 2-((6-(5′-chloro-3,5-dimethyl-2,4′-bipyridin-2′-yl)-5,6,7,8-tetrahydro-pyrido-[4,3-d]pyrimidin-2-yl)(methyl)-amino)ethanol]	22.9
Cc1cnc(-c2cc(N3CCc4nc(N(C)S(C)(=O)=O)ncc4C3)ncc2Cl)c(C)c1 [Compound A-58, N-(6-(5′-chloro-3,5-dimethyl-2,4′-bipyridin-2′-yl)-5,6,7,8-tetrahydro-pyrido-[4,3-d]pyrim-idin-2-yl)-N-methylmethane-sulfonamide]	59.8
CNC(=O)c1cn2c(n1)CN(c1cc(-c3ncc(C)cc3C)c(Cl)cn1)CC2 [Compound A-6, 7-(5′-chloro-3,5-dimethyl-2,4′-bipyridin-2′-yl)-N-methyl-5,6,7,8-tetrahydro-imidazo-[1,2-a]pyrazine-2-carboxamide]	1260
Cc1cnc(-c2cc(N3CCc4nc(N5CCC(O)C5)ncc4C3=O)ncc2Cl)c(C)c1 (stereo not drawn) [Compound A-105, 6-(5′-chloro-3,5-dimethyl-2,4′-bipyridin-2′-yl)-2-(3-hydroxy-pyrrolidin-1-yl)-7,8-dihydro-pyrido[4,3-d]pyrimidin-5(6H)-one]	272
CSc1ncc2c(n1)CCN(c1cc(-c3ncc(C)cc3C)c(Cl)cn1)C2=O [Compound A-96, 6-(5′-chloro-3,5-dimethyl-2,4′-bipyridin-2′-yl)-2-(methylthio)-7,8-dihydro-pyrido[4,3-d]pyrimidin-5(6H)-one]	169
Cc1cnc(-c2cc(N3CCc4nc(N5CCC(O)CC5)ncc4C3)ncc2Cl)c(C)c1 [Compound A-55, 1-(6-(5′-chloro-3,5-dimethyl-2,4′-bipyridin-2′-yl)-5,6,7,8-tetrahydro-pyrido-[4,3-d]pyrimidin-2-yl)piperidin-4-ol]	5.1
CCOC(=O)Nc1ncc2c(n1)CCN(c1cc(-c3ncc(C)cc3C)c(Cl)cn1)C2 [Compound A-90, ethyl 6-(5′-chloro-3,5-dimethyl-2,4′-bipyridin-2′-yl)-5,6,7,8-tetrahydropyrido[4,3-d]pyrimidin-2-ylcarbamate]	408
Cc1cnc(-c2cc(N3CCc4nc(NC(=O)CCN5CCCCC5)sc4C3)ncc2Cl)c(C)c1 [Compound A-40, N-(5-(5′-chloro-3,5-dimethyl-2,4′-bipyridin-2′-yl)-4,5,6,7-tetrahydro-thiazolo-[5,4-c]pyridin-2-yl)-3-(piperidin-1-yl)propanamide]	151
Cc1cnc(-c2cc(N3CCc4nc(N5CCOCC5)sc4C3)ncc2Cl)c(C)c1 [Compound A-29, 4-(5-(5′-chloro-3,5-dimethyl-[2,4′-bipyridin]-2′-yl)-4,5,6,7-tetrahydrothiazolo[5,4-c]pyridin-2-yl)morpholine]	169
Cc1cnc(-c2cc(N3CCn4cc(C(=O)OC5CCCC5)nc4C3)ncc2Cl)c(C)c1 [Compound A-17, cyclopentyl 7-(5′-chloro-3,5-dimethyl-2,4′-bipyridin-2′-yl)-5,6,7,8-tetrahydro-imidazo-[1,2-a]pyrazine-2-carboxylate]	> 1000
CCOc1nc2c(s1)CN(c1cc(-c3ncc(C)cc3C)c(Cl)cn1)CC2 [Compound A46, 5-(5′-chloro-3,5-dimethyl-2,4′-bipyridin-2′-yl)-2-ethoxy-4,5,6,7-tetrahydro-thiazolo-[5,4-c]pyridine]	158
Cc1cnc(-c2cc(N3CCn4cc(NC(=O)C(F)(F)F)nc4C3)ncc2Cl)c(C)c1 [Compound A-12, N-(7-(5′-chloro-3,5-dimethyl-2,4′-bipyridin-2′-yl)-5,6,7,8-tetrahydro-imidazo-[1,2-a]pyrazin-2-yl)-2,2,2-trifluoro-acetamide]	> 1000
Cc1cnc(-c2cc(N3CCn4cc(C(=O)Oc5ccccc5)nc4C3)ncc2Cl)c(C)c1 [Compound A-18, phenyl 7-(5′-chloro-3,5-dimethyl-2,4′-bipyridin-2′-yl)-5,6,7,8-tetrahydro-imidazo-[1,2-a]pyrazine-2-carboxylate]	> 1000

Structure (SMILES)	IC50 [nM]
Cc1cnc(-c2cc(N3CCc4nc(N5CCC(O)CC5)sc4C3)ncc2Cl)c(C)c1 [Compound A-32, 1-(5-(5′-chloro-3,5-dimethyl-2,4′-bipyridin-2′-yl)-4,5,6,7-tetrahydro-thiazolo-[5,4-c]pyridin-2-yl)piperidin-4-ol]	86.7
FC(F)(F)c1ccc(-c2cc(N3CCc4nc(NC5CC5)ncc4C3)ncc2Cl)nc1 [Compound A-114, 6-(5′-chloro-5-(trifluoro-methyl)-2,4′-bipyridin-2′-yl)-N-cyclopropyl-5,6,7,8-tetrahydro-pyrido-[4,3-d]pyrimidin-2-amine]	> 1000
Cc1cnc(-c2cc(N3CCn4cc(C(=O)N(C)CCO)nc4C3)ncc2Cl)c(C)c1 [Compound A-8, 7-(5′-chloro-3,5-dimethyl-2,4′-bipyridin-2′-yl)-N-(2-hydroxyethyl)-N-methyl-5,6,7,8-tetrahydro-imidazo-[1,2-a]pyrazine-2-carboxamide]	2010
Cc1cnc(-c2cc(N3CCn4cc(C(=O)O)nc4C3)ncc2Cl)c(C)c1 [Compound A-2, 7-(5′-chloro-3,5-dimethyl-2,4′-bipyridin-2′-yl)-5,6,7,8-tetrahydro-imidazo-[1,2-a]pyrazine-2-carboxylic acid]	> 10000
CCC(=O)Nc1cn2c(n1)CN(c1cc(-c3ncc(C)cc3C)c(Cl)cn1)CC2 [Compound A-13, N-(7-(5′-chloro-3,5-dimethyl-2,4′-bipyridin-2′-yl)-5,6,7,8-tetrahydroimidazo[1,2-a]pyrazin-2-yl)propionamide]	> 1000
Cc1cnc(-c2cc(N3CCc4nc(OC5CCCC5)ncc4C3)ncc2Cl)c(C)c1 [Compound A-71, 6-(5′-chloro-3,5-dimethyl-2,4′-bipyridin-2′-yl)-2-(cyclo-pentyloxy)-5,6,7,8-tetrahydro-pyrido-[4,3-d]pyrim-idine]	77.1
Cc1cnc(-c2cc(N3CCc4nc(N5CC(C)NC(C)C5)ncc4C3=O)ncc2Cl)c(C)c1 (stereo not drawn) [Compound A-101, 6-(5′-chloro-3,5-dimethyl-2,4′-bipyridin-2′-yl)-2-(3,5-dimethyl-piperazin-1-yl)-7,8-dihydro-pyrido[4,3-d]pyrimidin-5(6H)-one]	253
CCOc1ncc2c(n1)CCN(c1cc(-c3ncc(C)cc3C)c(Cl)cn1)C2 [Compound A-67, 6-(5′-chloro-3,5-dimethyl-2,4′-bipyridin-2′-yl)-2-ethoxy-5,6,7,8-tetrahydro-pyrido-[4,3-d]pyrim-idine]	207
Cc1cnc(-c2cc(N3CCn4cc(C(=O)N5CCC(O)CC5)nc4C3)ncc2Cl)c(C)c1 [Compound A-4, (7-(5′-chloro-3,5-dimethyl-2,4′-bipyridin-2′-yl)-5,6,7,8-tetrahydro-imidazo-[1,2-a]pyrazin-2-yl)(4-hydroxy-piperidin-1-yl)methanone]	639
Cc1cnc(-c2cc(N3CCc4nc(N5CC(O)C5)ncc4C3)ncc2Cl)c(C)c1 [Compound A-72, 1-(6-(5′-chloro-3,5-dimethyl-2,4′-bipyridin-2′-yl)-5,6,7,8-tetrahydro-pyrido-[4,3-d]pyrimidin-2-yl)azetidin-3-ol]	283
Cc1cnc(-c2cc(N3CCc4nc(Nc5ccccc5)sc4C3)ncc2Cl)c(C)c1 [Compound A-48, 5-(5′-chloro-3,5-dimethyl-2,4′-bipyridin-2′-yl)-N-phenyl-4,5,6,7-tetrahydro-thiazolo-[5,4-c]pyridin-2-amine]	330
Cc1cnc(-c2cc(N3CCc4nc(NC(=O)NC(C)C)sc4C3)ncc2Cl)c(C)c1 [Compound A-43, 1-(5-(5′-chloro-3,5-dimethyl-2,4′-bipyridin-2′-yl)-4,5,6,7-tetrahydro-thiazolo-[5,4-c]pyridin-2-yl)-3-isopropylurea]	201
Cc1cnc(-c2cc(N3CCc4nc(NCC5CC5)sc4C3)ncc2Cl)c(C)c1 [Compound A-31, 5-(5′-chloro-3,5-dimethyl-2,4′-bipyridin-2′-yl)-N-(cyclopro-pylmeth-yl)-4,5,6,7-tetrahydro-thiazolo-[5,4-c]pyridin-2-amine]	54.8
Cc1cnc(-c2cc(N3CCc4nc(NC(C)(C)C)ncc4C3)ncc2Cl)c(C)c1 [Compound A-61, N-tert-butyl-6-(5′-chloro-3,5-dimethyl-2,4′-bipyridin-2′-yl)-5,6,7,8-tetrahydro-pyrido-[4,3-d]pyrimidin-2-amine]	14.1
CSc1ncc2c(n1)C(C)CN(c1cc(-c3ncc(C)cc3C)c(Cl)cn1)C2 (stereo not drawn) [Compound A-74, 6-(5′-chloro-3,5-dimethyl-2,4′-bipyridin-2′-yl)-8-methyl-2-(methylthio)-5,6,7,8-tetrahydro-pyrido-[4,3-d]-pyrimidine]	575
Cc1cnc(-c2cc(N3CCc4nc(NC(=O)CCN5CCOCC5)sc4C3)ncc2Cl)c(C)c1 [Compound A-39, N-(5-(5′-chloro-3,5-dimethyl-2,4′-bipyridin-2′-yl)-4,5,6,7-tetrahydro-thiazolo-[5,4-c]pyridin-2-yl)-3-morpholino-propan-amide]	134
